Results on 36 molecules are retold here after patent US9890171B2, “Aldosterone synthase inhibitors” (Boehringer Ingelheim International GmbH, priority 2014, dated 2018).

aldosterone synthase (CYP11B2), sequence (A0A2K5UPL9 1-503): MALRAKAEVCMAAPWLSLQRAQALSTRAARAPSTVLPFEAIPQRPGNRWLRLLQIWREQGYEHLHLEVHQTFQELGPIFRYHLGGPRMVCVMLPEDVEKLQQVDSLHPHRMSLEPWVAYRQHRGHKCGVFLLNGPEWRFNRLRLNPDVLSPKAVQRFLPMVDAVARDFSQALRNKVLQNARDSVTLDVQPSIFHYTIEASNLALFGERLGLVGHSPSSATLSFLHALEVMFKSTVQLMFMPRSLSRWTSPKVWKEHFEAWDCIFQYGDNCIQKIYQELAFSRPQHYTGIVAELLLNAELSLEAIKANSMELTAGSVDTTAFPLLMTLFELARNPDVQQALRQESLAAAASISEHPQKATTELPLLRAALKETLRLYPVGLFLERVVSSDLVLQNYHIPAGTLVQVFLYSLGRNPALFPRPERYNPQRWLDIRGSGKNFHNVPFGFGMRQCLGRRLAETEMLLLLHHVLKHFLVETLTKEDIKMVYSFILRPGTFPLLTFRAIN

The experiment deals with aldosterone synthase (CYP11B2) (Macaca fascicularis, UniProt A0A2K5UPL9). Put plainly: aldosterone synthase inhibition assay. The settings on record: cynomolgus adrenal gland mitochondria, 2 μM corticosterone, aldosterone quantified by mass spectrometry. Format: biochemical, cynomolgus monkey. In short, it runs like this:
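Cynomolgus adrenal mitochondria ([…]) used as CYP11B2 source with 2 μM corticosterone in 100 mM potassium phosphate pH 7.4, 1% DMSO; reaction started with 1 mM NADPH, run 60-90 min at 37° C. Aldosterone measured by mass spectrometry; IC50 from 4-parameter logistic fit, no-NADPH blank as 0%.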
For the molecule `OC1COCc2c(-c3ccc4cn[nH]c4c3)cncc21` (single isomer, unassigned) [Compound 37, 8-(1H-Indazol-6-yl)-3,4-dihydro-1H-pyrano[4,3-c]pyridin-4-ol], half-maximal inhibition (IC50) was put at 0.0944 µM.
The same measure for `OC1COCc2c(-c3ccc4c(Cl)n[nH]c4c3)cncc21` (single isomer, unassigned) [Compound 127, 8-(3-Chloro-1H-indazol-6-yl)-3,4-dihydro-1H-pyrano[4,3-c]pyridin-4-ol]: 0.0067 µM; for `CN1CCc2cc(-c3cncc4c3COCC4O)ccc2C1=O` (single isomer, unassigned) [Compound 124, 6-(4-Hydroxy-3,4-dihydro-1H-pyrano[4,3-c]pyridin-8-yl)-2-methyl-3,4-dihydro-2H-isoquinolin-1-one]: 1.01 µM; for `Cn1ncc2ccc(-c3cncc4c3COCC4N)cc21` (single isomer, unassigned) [Compound 71, 8-(1-Methyl-1H-indazol-6-yl)-3,4-dihydro-1H-pyrano[4,3-c]pyridin-4-ylamine]: 0.0222 µM.
Take `OC1COCc2c(-c3ccc4[nH]ccc4c3)cncc21` (single isomer, unassigned) [Compound 48, 8-(1H-Indol-5-yl)-3,4-dihydro-1H-pyrano[4,3-c]pyridin-4-ol]: the 50% inhibitory concentration (IC50) came to 0.0174 µM.
The same measure for `OC1COCc2c(-c3ccc4ocnc4c3)cncc21` (single isomer, unassigned) [Compound 53, 8-Benzooxazol-5-yl-3,4-dihydro-1H-pyrano[4,3-c]pyridin-4-ol]: 0.808 µM.
Turning to `OC1COCc2c(-c3ccn4ccnc4c3)cncc21` (single isomer, unassigned) [Compound 101, 8-Imidazo[1,2-a]pyridin-7-yl-3,4-dihydro-1H-pyrano[4,3-c]pyridin-4-ol], half-maximal inhibition (IC50) required 0.225 µM.
The same measure for `O=C1CCc2cc(-c3cncc4c3COCC4O)ccc21` (single isomer, unassigned) [Compound 183, 5-(4-Hydroxy-3,4-dihydro-1H-pyrano[4,3-c]pyridin-8-yl)-indan-1-one]: 0.052 µM; for `CC(C)Oc1nc(-c2cncc3c2COCC3O)cs1` (single isomer, unassigned) [Compound 8, 8-(2-Isopropoxy-thiazol-4-yl)-3,4-dihydro-1H-pyrano[4,3-c]pyridin-4-ol]: 3.7 µM; for `O=C1Cc2cc(-c3cncc4c3COCC4O)ccc2N1` (single isomer, unassigned) [Compound 52, 5-(4-Hydroxy-3,4-dihydro-1H-pyrano[4,3-c]pyridin-8-yl)-1,3-dihydro-indol-2-one]: 0.0641 µM.
`Cn1ncc2ccc(-c3cncc4c3COCC4C#N)cc21` (stereo not drawn) [Compound 9, 8-(1-Methyl-1H-indazol-6-yl)-3,4-dihydro-1H-pyrano[4,3-c]pyridine-4-carbonitrile] came in with an IC50 of 0.0057 µM.
The same measure for `Cn1ncc2c(C#N)cc(-c3cncc4c3COCC4(C)O)cc21` (single isomer, unassigned) [Compound 173, 6-(4-Hydroxy-4-methyl-3,4-dihydro-1H-pyrano[4,3-c]pyridin-8-yl)-1-methyl-1H-indazole-4-carbonitrile]: 0.34 µM; for `O=C1CCc2cc(-c3cncc4c3COCC4O)ccc21` (single isomer, unassigned) [Compound 103, 5-(4-Hydroxy-3,4-dihydro-1H-pyrano[4,3-c]pyridin-8-yl)-indan-1-one]: 0.01 µM; for `Cn1ncc2c1C=C(c1cncc3c1COCC3O)CC2` (single isomer, unassigned) [Compound 187, 8-(1-Methyl-4,5-dihydro-1H-indazol-6-yl)-3,4-dihydro-1H-pyrano[4,3-c]pyridin-4-ol]: 0.0129 µM.
The same measure for `O=C1NCCc2ccc(-c3cncc4c3COCC4O)cc21` (single isomer, unassigned) [Compound 119, 7-(4-Hydroxy-3,4-dihydro-1H-pyrano[4,3-c]pyridin-8-yl)-3,4-dihydro-2H-isoquinolin-1-one]: 0.96 µM; for `CCS(=O)(=O)NC1COCc2c(-c3ccc4c(c3)CC(=O)N4)cncc21` (single isomer, unassigned) [Compound 64, Ethanesulfonic acid [8-(2-oxo-2,3-dihydro-1H-indol-5-yl)-3,4-dihydro-1H-pyrano[4,3-c]pyridin-4-yl]-amide]: 0.611 µM.
`Cn1ncc2cc(F)c(-c3cncc4c3COCC4O)cc21` (single isomer, unassigned) [Compound 19, 8-(5-Fluoro-1-methyl-1H-indazol-6-yl)-3,4-dihydro-1H-pyrano[4,3-c]pyridin-4-ol] came in with a concentration for half-maximal inhibition (IC50) of 0.153 µM.
The same measure for `Cn1ncc2ccc(-c3cncc4c3C(C)(O)COC4)cc21` (single isomer, unassigned) [Compound 179, 4-Methyl-5-(1-methyl-1H-indazol-6-yl)-3,4-dihydro-1H-pyrano[3,4-c]pyridin-4-ol]: 0.0389 µM; for `CCS(=O)(=O)NC1COCc2c(-c3ccc4c(C)n[nH]c4c3)cncc21` (single isomer, unassigned) [Compound 66, Ethanesulfonic acid [8-(3-methyl-1H-indazol-6-yl)-3,4-dihydro-1H-pyrano[4,3-c]pyridin-4-yl]-amide]: 1 µM; for `Cn1ncc2ccc(-c3cncc4c3C(C)(O)COC4)cc21` (single isomer, unassigned) [Compound 180, 4-Methyl-5-(1-methyl-1H-indazol-6-yl)-3,4-dihydro-1H-pyrano[3,4-c]pyridin-4-ol]: 0.281 µM.
Regarding `OC1COCc2c(-c3ccc4c(c3)COCCO4)cncc21` (single isomer, unassigned) [Compound 107, 8-(2,3-Dihydro-5H-benzo[e][1,4]dioxepin-7-yl)-3,4-dihydro-1H-pyrano[4,3-c]pyridin-4-ol], half-maximal inhibition (IC50) required 0.0799 µM.
For the molecule `OC1COCc2c(-c3ccccc3)cncc21` (single isomer, unassigned) [Compound 5, 8-Phenyl-3,4-dihydro-1H-pyrano[4,3-c]pyridin-4-ol], the half-maximal inhibitory concentration (IC50) was 0.055 µM.
The same measure for `CCC(=O)NC1COCc2c(-c3ccc4cnn(C)c4c3)cncc21` (single isomer, unassigned) [Compound 76, N-[8-(1-Methyl-1H-indazol-6-yl)-3,4-dihydro-1H-pyrano[4,3-c]pyridin-4-yl]-propionamide]: 0.0179 µM.
Regarding `Cc1noc2ccc(-c3cncc4c3COCC4O)cc12` (single isomer, unassigned) [Compound 90, 8-(3-Methyl-benzo[d]isoxazol-5-yl)-3,4-dihydro-1H-pyrano[4,3-c]pyridin-4-ol], it took 0.0085 µM to reach half-maximal inhibition (IC50).
The same measure for `OC1COCc2c(-c3ccc4c(c3)OCCO4)cncc21` (single isomer, unassigned) [Compound 25, 8-(2,3-Dihydro-benzo[1,4]dioxin-6-yl)-3,4-dihydro-1H-pyrano[4,3-c]pyridin-4-ol]: 0.159 µM; for `OC1COCc2c(-c3ccc4c(c3)COCCO4)cncc21` (single isomer, unassigned) [Compound 108, 8-(2,3-Dihydro-5H-benzo[e][1,4]dioxepin-7-yl)-3,4-dihydro-1H-pyrano[4,3-c]pyridin-4-ol]: 0.771 µM; for `OC1COCc2c(-c3ccc4c(c3)OCCCO4)cncc21` (single isomer, unassigned) [Compound 28, 8-(3,4-Dihydro-2H-benzo[b][1,4]dioxepin-7-yl)-3,4-dihydro-1H-pyrano[4,3-c]pyridin-4-ol]: 0.333 µM.
The same measure for `CCS(=O)(=O)NC1COCc2c(-c3cc4c(cnn4C)cc3C)cncc21` (single isomer, unassigned) [Compound 78, Ethanesulfonic acid [8-(1,5-dimethyl-1H-indazol-6-yl)-3,4-dihydro-1H-pyrano[4,3-c]pyridin-4-yl]-amide]: 2.8 µM; for `OC1CCOc2ccc(-c3cncc4c3COCC4O)cc21` (single isomer, unassigned) [Compound 131, 8-(4-Hydroxy-chroman-6-yl)-3,4-dihydro-1H-pyrano[4,3-c]pyridin-4-ol]: 1.47 µM.
The same measure for `CC1(O)CCOc2ccc(-c3cncc4c3COCC4O)cc21` (single isomer, unassigned) [Compound 139, 8-(4-Hydroxy-4-methyl-chroman-6-yl)-3,4-dihydro-1H-pyrano[4,3-c]pyridin-4-ol]: 2.8 µM; for `OC1CCOc2ccc(-c3cncc4c3COCC4O)cc21` (single isomer, unassigned) [Compound 134, 8-(4-Hydroxy-chroman-6-yl)-3,4-dihydro-1H-pyrano[4,3-c]pyridin-4-ol]: 0.253 µM; for `CC(C)C(=O)NC1COCc2c(-c3ccc4cnn(C)c4c3)cncc21` (single isomer, unassigned) [Compound 77, N-[8-(1-Methyl-1H-indazol-6-yl)-3,4-dihydro-1H-pyrano[4,3-c]pyridin-4-yl]-isobutyramide]: 0.0326 µM.
`OC1COCc2c(-c3cnn(C4CC4)c3)cncc21` (single isomer, unassigned) [Compound 46, 8-(1-Cyclopropyl-1H-pyrazol-4-yl)-3,4-dihydro-1H-pyrano[4,3-c]pyridin-4-ol] showed an IC50 of 0.302 µM.
Turning to `NC(=O)N1CCCc2cc(-c3cncc4c3COCC4O)cnc21` (stereo not drawn) [Compound 102, 6-(4-Hydroxy-3,4-dihydro-1H-pyrano[4,3-c]pyridin-8-yl)-3,4-dihydro-2H-[1,8]naphthyridine-1-carboxylic acid amide], it took 0.0649 µM to reach half-maximal inhibition (IC50).
The same measure for `OC1COCc2c(-c3ccc4cnccc4c3)cncc21` (single isomer, unassigned) [Compound 45, 8-Isoquinolin-6-yl-3,4-dihydro-1H-pyrano[4,3-c]pyridin-4-ol]: 0.0058 µM.
The same measure for `NC(=O)N1CCCc2cc(-c3cncc4c3C(O)COC4)cnc21` (single isomer, unassigned) [Compound 162, 6-(4-Hydroxy-3,4-dihydro-1H-pyrano[3,4-c]pyridin-5-yl)-3,4-dihydro-2H-[1,8]naphthyridine-1-carboxylic acid amide]: 0.0714 µM.

Broadly, the IC50 is the concentration that gives 50% inhibition. Low readings indicate inhibition by little substance, high ones a need for much substance.
